Reference: the Deep4Chem optical property database
Where “and” joins values, the source holds several entries; their conditions need not be identical. Equal entries are not always repeated. Each block holds one compound with its values, some of them ahead of it.

Test: photoluminescence quantum yield (fraction); solvent given as SMILES
[1] = in O=P(c1ccccc1)(c1ccccc1)c1ccccc1Oc1ccccc1P(=O)(c1ccccc1)c1ccccc1

SMILES: N#Cc1c(-n2c3ccccc3c3ccccc32)cccc1-n1c2ccccc2c2ccccc21
photoluminescence quantum yield (in Cc1ccccc1): 0.13
photoluminescence quantum yield [1]: 0.28

SMILES: O=C(O)COc1ccc2[nH]c3c(c2c1)CCCC3=O
photoluminescence quantum yield (in C1CCOC1): 0.01
photoluminescence quantum yield (in C1COCCO1): 0.007
photoluminescence quantum yield (in CC#N): 0.024
photoluminescence quantum yield (in CCCCCCCCCCCCO): 0.012
photoluminescence quantum yield (in CCCCCCCCCCO): 0.009
photoluminescence quantum yield (in CCCCCCCCO): 0.017
photoluminescence quantum yield (in CCCCCCO): 0.016
photoluminescence quantum yield (in CCCCO): 0.012
photoluminescence quantum yield (in CCO): 0.017
photoluminescence quantum yield (in CCOC(C)=O): 0.018
photoluminescence quantum yield (in CN(C)C=O): 0.07
photoluminescence quantum yield (in CO): 0.051
photoluminescence quantum yield (in CS(C)=O): 0.087
photoluminescence quantum yield (in Cc1ccccc1): 0.026
photoluminescence quantum yield (in O): 0.011
photoluminescence quantum yield (in c1ccccc1): 0.006

SMILES: CCCCC1(CCCC)c2cc(C#Cc3ccc4ccc5cccc6ccc3c4c56)ccc2-c2ccc(C#Cc3ccc4ccc5cccc6ccc3c4c56)cc21
photoluminescence quantum yield (in Cc1ccccc1): 0.99

SMILES: N#Cc1ccc(-c2ccc3c(c2)c2cc(-c4ccc(C#N)cc4)ccc2c2c3nc(-c3ccc(-c4ccc(N(c5ccccc5)c5ccccc5)cc4)cc3)n2-c2ccccc2)cc1
photoluminescence quantum yield (in C1CCOC1): 0.54
photoluminescence quantum yield (in CC#N): 0.51
photoluminescence quantum yield (in CCCCCC): 0.82
photoluminescence quantum yield (in CCOCC): 0.9

SMILES: C=C[Si]1(C)c2ccccc2-c2cc3c(cc21)-c1ccccc1[Si]3(C)C=C (centres undefined)
photoluminescence quantum yield (in ClCCl): 0.5

SMILES: Cc1c2ccccc2c(C2=C3C=CC=[N+]3[B-](F)(F)n3cccc32)c2ccccc12
photoluminescence quantum yield (in CC#N): 0.001
photoluminescence quantum yield (in CCCCCC): 0.041
photoluminescence quantum yield (in CCO): 0.002
photoluminescence quantum yield (in CN(C)C=O): 0.002
photoluminescence quantum yield (in Cc1ccccc1): 0.007
photoluminescence quantum yield (in ClCCl): 0.005

SMILES: c1ccc([B-]2(c3ccccc3)Oc3ccc4ccccc4c3-c3c4ccccc4cn[n+]32)cc1
photoluminescence quantum yield (in Cc1ccccc1): 0.15

SMILES: CC1(C)c2ccccc2N(c2ccc(-c3nc(-c4ccccc4)cc(-c4ccccc4)n3)cc2)c2ccccc21
photoluminescence quantum yield (in CC#N): 0.018
photoluminescence quantum yield (in Cc1ccccc1): 0.339
photoluminescence quantum yield (in ClCCl): 0.632
photoluminescence quantum yield [1]: 0.61

SMILES: CCCCCCCCCCCCC1(CCCCCCCCCCCC)c2cc(-c3ccc(C=C4C(=O)c5ccccc5C4=O)cc3)ccc2-c2ccc(-c3ccc(C=C4C(=O)c5ccccc5C4=O)cc3)cc21
photoluminescence quantum yield (in C1CCOC1): 0.046
photoluminescence quantum yield (in CC(C)=O): 0.121
photoluminescence quantum yield (in CCCCCC): 0.008
photoluminescence quantum yield (in CS(C)=O): 0.228
photoluminescence quantum yield (in Cc1ccccc1): 0.012
photoluminescence quantum yield (in ClC(Cl)Cl): 0.013

SMILES: CCn1c2ccccc2c2cc(C#Cc3cc(C#Cc4ccc5c(c4)c4ccccc4n5CC)nc(S(C)(=O)=O)n3)ccc21
photoluminescence quantum yield (in C1CCOC1): 0.74
photoluminescence quantum yield (in CCOC(C)=O): 0.75
photoluminescence quantum yield (in CN(C)C=O): 0.59
photoluminescence quantum yield (in Cc1ccccc1): 0.81
photoluminescence quantum yield (in ClCCl): 0.46

SMILES: CC(C)(C)c1ccc(-c2cc(-c3ccc(-c4cc(-c5ccc(C(C)(C)C)cc5)c(C#N)s4)s3)sc2C#N)cc1
photoluminescence quantum yield (in ClCCl): 0.17

SMILES: Nc1ccc2c(c1)C(=O)NC2=O
photoluminescence quantum yield (in C1CCOC1): 0.7 and 1
photoluminescence quantum yield (in C1COCCO1): 0.73
photoluminescence quantum yield (in CC#N): 0.63
photoluminescence quantum yield (in CC(C)=O): 0.68
photoluminescence quantum yield (in CCO): 0.21
photoluminescence quantum yield (in CN(C)C=O): 0.91
photoluminescence quantum yield (in ClCCl): 0.76

SMILES: O=C1c2ccccc2-c2ccc(N3CCN(c4ccccc4)CC3)c3cccc1c23
photoluminescence quantum yield (in C1CCCCC1): 0.424
photoluminescence quantum yield (in C1CCOC1): 0.123
photoluminescence quantum yield (in C1COCCO1): 0.42
photoluminescence quantum yield (in CC1COC(=O)O1): 0.009
photoluminescence quantum yield (in CC#N): 0.005
photoluminescence quantum yield (in CC(C)=O): 0.011
photoluminescence quantum yield (in CCCCCCCCO): 0.018
photoluminescence quantum yield (in CCCCCO): 0.017
photoluminescence quantum yield (in CCCCO): 0.014
photoluminescence quantum yield (in CCCO): 0.021
photoluminescence quantum yield (in CCO): 0.007
photoluminescence quantum yield (in CCOC(C)=O): 0.108
photoluminescence quantum yield (in CN(C)C=O): 0.005
photoluminescence quantum yield (in CO): 0.004
photoluminescence quantum yield (in CS(C)=O): 0.004
photoluminescence quantum yield (in Cc1ccccc1): 0.431
photoluminescence quantum yield (in ClC(Cl)Cl): 0.348

SMILES: COC(=O)c1cccc2c1C#Cc1c(N)cccc1OCCCO2
photoluminescence quantum yield (in CC#N): 0.03
photoluminescence quantum yield (in ClCCl): 0.14

SMILES: N#Cc1cc(-n2c3ccccc3c3ccccc32)c(-n2c3ccccc3c3ccccc32)cc1-c1cc(-n2c3ccccc3c3ccccc32)c(-n2c3ccccc3c3ccccc32)cc1C#N
photoluminescence quantum yield (in Cc1ccccc1): 0.46

SMILES: c1ccc(-c2nc(-c3ccccc3)nc(-c3ccccc3-n3c4ccccc4c4c5oc6ccccc6c5ccc43)n2)cc1
photoluminescence quantum yield [1]: 0.979

SMILES: COc1ccc(C2=CC(c3ccc4cc(N(C)C)ccc4c3)=[O+][B-](F)(F)O2)cc1
photoluminescence quantum yield (in C1CCOC1): 0.52
photoluminescence quantum yield (in CC#N): 0.01
photoluminescence quantum yield (in CC(C)=O): 0.12
photoluminescence quantum yield (in CS(C)=O): 0.007
photoluminescence quantum yield (in Cc1ccccc1): 0.95
photoluminescence quantum yield (in ClC(Cl)Cl): 0.99
photoluminescence quantum yield (in ClCCl): 0.62

SMILES: CCCCCOc1cc2oc(=O)c3c4ccc(C#N)cc4c4ccc5cccc6c(c1)c2c3c4c56
photoluminescence quantum yield (in C1CCOC1): 0.499

SMILES: Cc1c(C(=O)c2ccc3c4cccc5cccc(c6cccc2c63)c54)c2ccc3cccc4c5cccc6ccc1c(c65)c2c34
photoluminescence quantum yield (in ClCCl): 0.069

SMILES: c1ccc(-c2nc(-c3ccccc3)nc(-c3ccc(-n4c5ccc(-n6c7ccccc7c7ccccc76)cc5c5cc(-n6c7ccccc7c7ccccc76)ccc54)cc3)n2)cc1
photoluminescence quantum yield (in Cc1ccccc1): 0.57

SMILES: COc1cc(OC)cc(C(=O)OCc2c(C)c(=O)n3c(=O)c(C)c(C)n23)c1
photoluminescence quantum yield (in CCO): 0.638

SMILES: CCCCCCCCC1(CCCCCCCC)c2cc(-c3ccc([N+](=O)[O-])cc3)ccc2-c2ccc(-c3ccc([N+](=O)[O-])cc3)cc21
photoluminescence quantum yield (in C1CCCCC1): 0
photoluminescence quantum yield (in CCO): 0
photoluminescence quantum yield (in CN(C)C=O): 0.31
photoluminescence quantum yield (in CS(C)=O): 0.28
photoluminescence quantum yield (in Cc1ccccc1): 0
photoluminescence quantum yield (in ClC(Cl)Cl): 0.11

Continued, values first:

photoluminescence quantum yield (in ClCCl): 0.1
SMILES: CC(C)(C)OC(=O)/C=C/C1=CC2=C(c3ccccc3)c3cccn3[B-](F)(F)[N+]2=C1

photoluminescence quantum yield (in ClCCl): 0.01
SMILES: CCOC(=O)COc1ccc(/C=C/C2=C3C(C)=CC(C)=[N+]3[B-](F)(F)n3c2c2ccccc2c3-c2[nH]c(C)cc2C)cc1

photoluminescence quantum yield (in C1CCOC1): 0.2
SMILES: F[B-]1(F)n2c(c(-c3ccccc3)c(-c3ccccc3)c2-c2ccccc2)C(c2ccccc2)=C2C(c3ccccc3)=C(c3ccccc3)C(c3ccccc3)=[N+]21

photoluminescence quantum yield (in CO): 0.2
SMILES: c1ccc(N(c2ccccc2)c2ccc(-c3ncc(-c4cnc(-c5ccc(N(c6ccccc6)c6ccccc6)cc5)s4)s3)cc2)cc1

photoluminescence quantum yield (in C1CCCCC1): 0.699
photoluminescence quantum yield (in CCOC(C)=O): 0.627
photoluminescence quantum yield (in CN(C)C=O): 0.483
photoluminescence quantum yield (in CO): 0.43
photoluminescence quantum yield (in ClCCl): 0.673
SMILES: CCN(CC)c1ccc2c(c1)oc(=O)c1c(C)nc3c(c(-c4ccccc4)nn3C)c12

photoluminescence quantum yield (in C1CCCCC1): 0.39
photoluminescence quantum yield (in CC#N): 0.4
photoluminescence quantum yield (in CO): 0.39
photoluminescence quantum yield (in ClCCl): 0.44
SMILES: COc1c2ccccc2c(OC)c2c1c1cccc(OC)c1n2C

photoluminescence quantum yield (in CC#N): 1
photoluminescence quantum yield (in CCO): 0.98
photoluminescence quantum yield (in CN(C)C=O): 1
photoluminescence quantum yield (in CO): 1
photoluminescence quantum yield (in O): 0.99
SMILES: O=C([O-])c1ccccc1C1=c2cc3c4c(c2Oc2c1cc1c5c2CCCN5CCC1)CCC[N+]=4CCC3

photoluminescence quantum yield (in C1CCOC1): 0.23
SMILES: CCC1(CC)c2ccccc2-c2c1c1c(c3c2C(CC)(CC)c2cc(/C=C/c4cccs4)ccc2-3)C(CC)(CC)c2ccccc2-1

photoluminescence quantum yield (in CC#N): 0.038
SMILES: C1=CC2CC1C1C2[C@@]2(c3ccccc3)N=NC1(c1ccccc1)[C@@H]1C[C@H]12 (some centres undefined)

photoluminescence quantum yield (in ClCCl): 0.98
SMILES: COc1ccc(-c2cnc(-c3cccnc3)o2)cc1OC

photoluminescence quantum yield (in CC#N): 0.02
SMILES: c1ccc(-[c+]2c3ccccc3sc3ccccc32)cc1

photoluminescence quantum yield (in C1CCCCC1): 0.0095
photoluminescence quantum yield (in CC#N): 0.0012
photoluminescence quantum yield (in CCO): 0
SMILES: COc1cc(OC)c2c(c1)C(=O)c1ccc(OC)cc1-2

photoluminescence quantum yield (in ClC(Cl)Cl): 0.85
SMILES: CCCCCCCCC1(CCCCCCCC)c2cc(-c3ccccc3)ccc2-c2ccc(-c3ccccc3)cc21

photoluminescence quantum yield (in C1COCCO1): 0.78
photoluminescence quantum yield (in CC#N): 0.67
photoluminescence quantum yield (in CCCCCC): 0.72
photoluminescence quantum yield (in CCO): 0.62
SMILES: CCC12C(=C3C(=C4c5ccc(-c6ccc(C)s6)cc5S(=O)(=O)C41CC)C(F)(F)C(F)(F)C3(F)F)c1ccc(-c3ccc(C)s3)cc1S2(=O)=O (centres undefined)

photoluminescence quantum yield (in CC#N): 0.0227
photoluminescence quantum yield (in O): 0.0124
SMILES: COc1ccc2c(c1)[n+]([O-])nc(N)[n+]2[O-]

photoluminescence quantum yield (in CC#N): 0.00066
SMILES: COc1cccc(-[c+]2c3ccccc3oc3ccccc32)c1

photoluminescence quantum yield (in CO): 0.09
photoluminescence quantum yield (in ClC(Cl)Cl): 0.12
SMILES: Cc1cc(=O)oc2cc3c4ccccc4c4ccccc4c3cc12

photoluminescence quantum yield (in CC#N): 0.47
SMILES: CCOC(=O)c1c2c3c(ccc(F)c3c3cc4c(cc13)[Si](C)(C)O[Si]4(C)C)N(C)C2=O

photoluminescence quantum yield (in C1CCCCC1): 0.06
SMILES: CCCCc1cc2cccc3cc(CCCC)c4cc(-c5cc6[b-]7c(c5)c(CCCC)cc5cccc(cc6CCCC)[n+]75)cc1[b-]4[n+]23

photoluminescence quantum yield (in ClC(Cl)Cl): 0.026
SMILES: CCCCCCn1c2cc(/C=C(\C#N)c3ccccc3)ccc2c2ccc(/C=C(\C#N)c3ccccc3)cc21

photoluminescence quantum yield (in ClCCl): 0.109
SMILES: C(S/C=C/c1ccc(/C=C/SC=C2CCCCCC2)cc1)=C1CCCCCC1

photoluminescence quantum yield (in ClCCl): 0.02
SMILES: COc1ccc(-c2c3cc4ccccc4cc3c(C#Cc3ccccc3)c3cc4ccccc4cc23)cc1

photoluminescence quantum yield (in ClCCl): 0.21
SMILES: N#Cc1ccc(-c2nc(-c3ccccc3)c3ccccn23)cc1

photoluminescence quantum yield (in O): 0.114
SMILES: Cn1ccc(-n2cncn2)nc1=O

photoluminescence quantum yield (in C1CCOC1): 0.04
SMILES: C[Si]1(c2ccccc2)C(c2ccc3c(c2)c2ccccc2n3-c2ccccc2)=C(c2ccccc2)C(c2ccccc2)=C1c1ccc2c(c1)c1ccccc1n2-c1ccccc1

photoluminescence quantum yield (in CC(C)O): 0.11
SMILES: CC[n+]1c(C=C2C(=O)C(C=C3N(C)c4ccccc4C3(C)C)=C2[O-])[se]c2ccccc21

photoluminescence quantum yield (in CN(C)C=O): 0.98
SMILES: Cc1ccc2[nH]c(-c3ccc(-c4ccc(-c5ccc(-c6nc7cc(C)ccc7[nH]6)cc5)c(F)c4)cc3)nc2c1

photoluminescence quantum yield (in ClCCl): 0.06
SMILES: c1ccc2c(c1)-c1sc3ccccc3c1C21c2ccccc2-c2sc3ccccc3c21

photoluminescence quantum yield (in ClCCl): 0.59
SMILES: CCCCC(CC)Cn1c2cc(C#N)ccc2c2ccc(C#Cc3ccc4ccc5cccc6ccc3c4c56)cc21 (centres undefined)
